This note sets out measurements from PubChem BioAssay (NCI).

Molecules are shown by their SMILES.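 All cell lines were grown in 96-well plates and treated with compound for 48 hours. At the GI50, growth is halved. Definition used: TGI = concentration required for complete inhibition of growth.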 *1 amine or outer side, *2 acyl side, *3 side chain or, on linkers, in order; H or OH if unused. Where a SMILES comes first, the peptide text is derived from it. Bridges are numbered along the chain shown (N, C = ends). [ ]: non-standard residue; d: D form. The star is where a group is joined. Phe(3,5-F2) = N[C@@H](Cc1cc(F)cc(F)c1)C(=O)O; Pro(4R-Me) = C[C@H]1CN[C@H](C(=O)O)C1; aThr = C[C@H](O)[C@H](N)C(=O)O; Pip = O=C(O)[C@@H]1CCCCN1; X10 = Fc1cc(C2CC2)ccc1N*; CO = O=C([*:1])[*:2]

Common to all, as to assay: NCI anticancer screen, dose series, 48 h
Assay [1] relates to A498 renal.
The subject of assay [2] is UO-31 renal.
In assay [3] the test system is NCI-H23 lung.
Assay [4] concerns TK-10 renal.
Assay [5] concerns NCI-H460 lung.
The subject of assay [6] is RXF 393 renal.
The test system of assay [7] is SK-OV-3 ovarian.
The subject of assay [8] is SK-MEL-5 melanoma.
For assay [9], the system named is NCI-H522 lung.
Assay [10] deals with PC-3 prostate.

As for `Cc1cc(-c2nc(C(=O)Nc3cc4oc(N5CCOCC5)nc4nc3N3CC[C@@H](O)C3)co2)ccn1`, the GI50 is 1.34 µM in assay [1]; 14.9 µM in assay [2]; 28.1 µM in [3]; 26.7 µM in assay [4]; 44 µM in assay [5]; 17.9 µM in assay [6]. In addition, the GI50 in assay [7] was 16.6 µM; in assay [8] it was 45.7 µM; in assay [9], 20 µM; in assay [10], 26.9 µM. For the same molecule, the TGI in assay [1] is 39.2 µM; in assay [2], 68.7 µM; in assay [3] it was more than 100 µM; in [4], more than 100 µM; in assay [5] it was more than 100 µM; in [6] it was more than 100 µM. In addition, the TGI in [7] was 66.9 µM; in assay [8], more than 100 µM; in assay [9], more than 100 µM; in [10] it was more than 100 µM.

`O=[N+]([O-])c1cccc(-c2csc(NNC3=NC/C(=C/c4ccc5c(c4)OCO5)S3)n2)c1`: the TGI in assay [1] is 37 µM; in assay [2] it was 85.6 µM; in assay [3], 48.9 µM; in assay [4] it was 81.6 µM; in assay [5], more than 100 µM; in [6], 47.4 µM. Further, the TGI in assay [7] was determined as 79 µM; in assay [8] it was 38.6 µM; in assay [9] it was 42.9 µM; in [10], 55.8 µM.

`C[C@@H]1C[C@H]2C(=O)O[C@@H](C)[C@H](NC(=O)[C@H](Cc3cc(F)cc(F)c3)NC(=O)Nc3ccc(C4CC4)cc3F)C(=O)N3CCC[C@H]3C(=O)N3CCCC[C@H]3C(=O)N[C@@H](C)C(=O)N2C1` ({X10-CO}-[Phe(3,5-F2)][aThr]P[Pip]A[Pro(4R-Me)]; ester 2-C): the GI50 is 0.0203 µM in assay [1]; 0.161 µM in assay [2]; 0.0522 µM in [3]; 0.343 µM in assay [4]; 0.0391 µM in [5]; 0.233 µM in [6]. Further, the GI50 is 0.0504 µM in assay [7], 0.0461 µM in assay [8], 0.0441 µM in [9] and 0.0355 µM in [10]. Moreover, the TGI in assay [1] is 0.363 µM; in [2], 7.61 µM; in [3], 35.3 µM; in assay [4], more than 35.1 µM; in [5] it was 4.55 µM; in assay [6] it was 3.99 µM. Further, the results for the TGI in [7], in [8] and in [10] were 16 µM, 1.24 µM and more than 36 µM, respectively.

Take `COc1cc(/C=N\NC(=O)CN2CCN(c3cc4c(cc3F)c(=O)c(C(=O)N/N=C/c3cc(OC)c(OC)c(OC)c3)cn4C3CC3)CC2)cc(OC)c1OC`: the GI50 was 0.299 µM in assay [1]; more than 100 µM in assay [2]; 0.237 µM in assay [3]; more than 100 µM in [4]; 0.251 µM in assay [5]; 1.63 µM in assay [6]. Further, the GI50 is 0.718 µM in assay [7], 0.417 µM in assay [8], 0.249 µM in assay [9] and 0.244 µM in assay [10]. The TGI is 23.7 µM in assay [1]; more than 100 µM in assay [2]; 0.605 µM in [3]; more than 100 µM in [4]; 0.636 µM in assay [5]; 30.4 µM in [6]. Moreover, the values for the TGI in assay [7], in assay [8] and in assay [10] were more than 53.1 µM, 5.1 µM and 0.656 µM, respectively.

With `COc1cc2c(c(OC)c1OC)-c1ccc(NNC(N)=S)c(=O)cc1[C@@H](NC(C)=O)CC2`, the GI50 in [1] was 0.93 µM; in assay [2], more than 25.9 µM; in [3], 0.414 µM; in [4], more than 26 µM; in [5] it was 0.397 µM; in assay [6], 0.298 µM. For the same molecule, the GI50 was 0.817 µM in [7], 0.345 µM in [8], 0.55 µM in assay [9] and 0.29 µM in assay [10]. In addition, the TGI in assay [1] was more than 21.1 µM; in assay [2], more than 100 µM; in [3] it was more than 49.9 µM; in [4], more than 100 µM; in assay [6], 0.747 µM; in assay [7] it was more than 100 µM. The TGI was 2.52 µM in assay [8], more than 100 µM in [9] and more than 100 µM in assay [10].

Regarding `Cc1nc2sccn2c1-c1csc(Nc2ccccc2Cl)n1`, the GI50 in assay [1] is 1.24 µM; in assay [2] it was 3.21 µM; in assay [3], 2.28 µM; in assay [4], 4.44 µM; in assay [5] it was 3.19 µM; in [6], 1.9 µM. In addition, the GI50 is 8.4 µM in assay [7], 2.15 µM in [8], 2.08 µM in assay [9] and 4.09 µM in assay [10]. Further, the TGI in assay [1] stood at 12.7 µM; in assay [2] it was 33.6 µM; in assay [3] it was 35.4 µM; in [4], 48.8 µM; in assay [5], 15.8 µM; in assay [6] it was 7.09 µM. Moreover, the TGI in [7] stood at 75.2 µM; in [8] it was 10.3 µM; in [9], 15.7 µM; in [10], 37.5 µM.

For `NS(=O)(=O)OC[C@@H]1C[C@@H](n2ccc3c(NC4CCc5ccccc54)ncnc32)C[C@@H]1O` (some centres not stated), the GI50 in [1] is 0.123 µM; in [2] it was 11 µM; in [3], 1.34 µM; in [4], 14.1 µM; in [5] it was 0.341 µM; in assay [6], 11.2 µM. Moreover, the GI50 in [7] was 9.36 µM; in [8], 0.305 µM; in assay [9] it was 3.31 µM; in [10], 17 µM. Moreover, the TGI in [1] was 2.27 µM; in assay [2], more than 100 µM; in assay [3], 46.1 µM; in assay [4], more than 100 µM; in assay [5], 23.9 µM; in [6] it was 37.1 µM. The TGI was more than 93.9 µM in assay [7], 17.2 µM in assay [8], 27.3 µM in assay [9] and more than 100 µM in assay [10].

On to `Nc1c(C(=O)c2cccc(CCS(N)(=O)=O)c2)cnn1-c1ccc(F)cc1`, for which the GI50 in [1], in [2], in assay [3], in assay [4], in assay [5] and in assay [6] was more than 25 µM in each case. The GI50 in assay [7] was more than 25 µM; in assay [8], more than 16.7 µM; in assay [9] it was more than 25 µM; in assay [10], more than 25 µM. For the same molecule, the TGI in assay [1], in assay [2], in [3], in assay [4], in assay [5] and in assay [6] was more than 25 µM each time. Also, the TGI in assay [7], in assay [8], in [9] and in assay [10] was more than 25 µM in each case.
